Test results as given in patent US11793746B2, “Intense skin hydration systems and methods” (priority 2020, dated 2023).

Assays:
[1] = system: ultraviolet-induced erythema; assay: Ultraviolet-induced erythema, erythema scale; type: in vivo; settings: for Erythema score (mean ± SD): scale 0 none to 4 severe
Experimental: The anti-inflammatory activity of GC-100 was evaluated using ultraviolet-induced erythema as an endpoint.
Ultraviolet radiation generates a predictable, dose-dependent cutaneous response over time. The pathological mechanism includes injury to epidermal, dermal, and vascular constituents of the skin with a local inflammatory response mediated by proinflammatory cytokines and prostaglandins. It is the objective of this experiment to determine whether GC-100 can alleviate an ultraviolet-mediated inflammatory response by qualitative assessment
Erythema was quantified after 2, 4, 5, and 24 hours following irradiation using a standard erythema scale that has been shown historically to yield reproducible results.

[2] = system: hepatocytes; assay: Cellular O2 consumption measured with an oxygraph; type: cell-based; settings: 3% GC-100
Description: Increased cellular respiration may be equated with more efficient use of cellular reserves (e.g., polysaccharides & triglycerides) and improved elimination of metabolic waste. The end result of enhanced cellular respiration is cellular regeneration and restoration of the organ system being evaluated. The activation of cellular respiration can be evaluated using an oxygraph. Since the oxygraph electrode response is directly proportional to the concentration of dissolved O2 in the test media, a measure of cellular O2 consumption can be calculated to yield information on changes in cellular respiration. […] FIG. 4 is a graph showing hepatocyte oxygen consumption in the presence of GC-100 at various concentrations.

[3] = system: lysyl oxidase; assay: Lysyl oxidase activity in wound-margin biopsies after surgical and xylene injury; type: in vivo, nude mice
Experimental: The dermotrophic effect of GC-100 was also determined using lysyl oxidase levels as an endpoint to determine whether GC-100 can effect the concentration of lysyl oxidase in wounded tissues and to establish whether GC-100 can accelerate the wound healing process using qualitative measurements.
Nude mice were chosen because their skin (and their lack of hair) is more similar to human skin than are other commonly used laboratory test animals. The test population was divided into 4 groups of 10 nude mice for the purpose of examining the best application sequence for GC-100 relative to injury. Group definitions are as follows:
A surgical wound measuring 2.54 cm in length and penetrating the dermis was made on the right hind quarter of all test subjects after appropriate anesthesia was administered.
A second index of injury using 1% xylene was used in all test subjects after creation of the surgical wound. Using a sterile tuberculin syringe, 0.1 mL of a 1% xylene solution was injected subcutaneously into the region of the surgical wound. The final size of the injury measured 25×20 mm^2.
The mice in Groups II, III, and IV were divided randomly after physical and chemical injury into 2 subgroups of 5 mice each for application of either GC-100 0.5% or 1%. Pretreatment for Group II and IV mice was conducted one hour prior to any injury, where GC-100 0.5% and 1% was rubbed into the right hind quarter of the designated mice for 50 cycles using a nylon glove. Post-treatment for mice in Group III and IV with GC-100 0.5% and 1% was conducted immediately after injury.
Wound recovery was determined over 30 days using cutaneous punch biopsies that were taken on post injury day 4, and at the conclusion of weeks 2, 3, and 4 from the wound margins. Biopsy specimens were analyzed for lysyl oxidase activity using a standard assay. Results are shown in Table 3 and FIG. 6, which is a graph showing percent lysyl oxidase as a function of treatment schedule and GC-100 concentration.

[4] = system: photodamaged human skin; assay: Pilot open label study on photoaged skin: epidermal thickness by high frequency ultrasound; type: in vivo; settings: for % change (epidermal thickness, ultrasound): range over panelists
Experimental: A pilot open label study was conducted to establish the efficacy of GC-100 on photoaged skin in a clinical setting.
Primary endpoints for this study were as follows: • 1. Epidermal skin thickness was measured using high frequency ultrasound. • 2. Panelists regard for their overall appearance and any changes noted in the appearance of their wrinkles, lentigines, facial acne and pore size were used in qualitative analysis. In addition, panelists were asked to comment on irritation, novel rashes, and other side effects during the study period.
An open label, six week pilot study to examiner the regenerative effect of GC-100 was performed on 15 women with mild to moderate dermatoheliosis as defined by clinical examination. Exclusion criteria selected against patients with a history of retinoic acid use, dermabrasion, or chemical peel application within 6 months prior to study onset. However, all patients had used one or more of these products previously. After appropriate informed consent was obtained, baseline measurements of epidermal thickness using high frequency untrasonography (20 MHz and above) were collected using skin at the infraorbital prominence. Three measurements were taken at each site and averaged to yield a result. GC-100 was applied to the face and neck according to the following schedule: • Weekly: GC-100 applied in mask vehicle • Twice daily: GC-100 applied through lotion vehicle
The patient population was divided into two groups, where Group I was evaluated after 24 hours of product application, and Group II was evaluated at the conclusion of weeks 2, 4 and 6. A panelist questionnaire was completed during each evaluation session.

[5] = Radial forearm free-flap, trophic effect; type: in vivo
[6] = Group I, evaluated after 24 hours of product application
[7] = Group II, evaluated at weeks 2, 4 and 6

In the case of H-Lys-Pro-NH2 [GC-100], the “% printed under erythema score (reduction vs control)” value (from here on “% printed … (reduction vs control)”) ([1]; 0.1% GC-100, 2 hrs) is reported as 32%, the “Erythema score (mean ± SD)” value ([1]; 0.1% GC-100, 2 hrs after irradiation) is reported as 1.89 ± 0.60 and the “% printed … (reduction vs control)” value ([1]; 0.1% GC-100, 4 hrs) is reported as 58.7%. The “Erythema score (mean ± SD)” value ([1]; 0.1% GC-100, 4 hrs after irradiation) was 1.56 ± 0.53, the “% printed … (reduction vs control)” value ([1]; 0.1% GC-100, 5 hrs) was 58.3% and the “Erythema score (mean ± SD)” value ([1]; 0.1% GC-100, 5 hrs after irradiation) was 1.67 ± 0.71. The “% printed … (reduction vs control)” value ([1]; 0.1% GC-100, 24 hrs) was 50%, the “Erythema score (mean ± SD)” value ([1]; 0.1% GC-100, 24 hrs after irradiation) was 1.00 ± 0.71 and the “effect on ultraviolet-induced erythema” value ([1]; 0.1%, 0.5%, 1% GC-100, greatest activity with 1%) was “ability to suppress ultraviolet-induced erythema”. The “% printed … (reduction vs control)” value ([1]; 0.5% GC-100, 2 hrs) was 56.1%, the “Erythema score (mean ± SD)” value ([1]; 0.5% GC-100, 2 hrs after irradiation) was 1.22 ± 0.44 and the “% printed … (reduction vs control)” value ([1]; 0.5% GC-100, 4 hrs) was 58.7%. The “Erythema score (mean ± SD)” value ([1]; 0.5% GC-100, 4 hrs after irradiation) was 1.56 ± 0.53, the “% printed … (reduction vs control)” value ([1]; 0.5% GC-100, 5 hrs) was 58.7% and the “Erythema score (mean ± SD)” value ([1]; 0.5% GC-100, 5 hrs after irradiation) was 1.56 ± 0.53. The “% printed … (reduction vs control)” value ([1]; 0.5% GC-100, 24 hrs) was 55.5%, the “Erythema score (mean ± SD)” value ([1]; 0.5% GC-100, 24 hrs after irradiation) was 0.89 ± 0.33 and the “% printed … (reduction vs control)” value ([1]; 1.0% GC-100, 2 hrs) was 64%. For the same substance, the “Erythema score (mean ± SD)” value ([1]; 1.0% GC-100, 2 hrs after irradiation) was 1.00, the “% printed … (reduction vs control)” value ([1]; 1.0% GC-100, 4 hrs) was 67% and the “Erythema score (mean ± SD)” value ([1]; 1.0% GC-100, 4 hrs after irradiation) was 1.22 ± 0.44. The “% printed … (reduction vs control)” value ([1]; 1.0% GC-100, 5 hrs) was 66.81%, the “Erythema score (mean ± SD)” value ([1]; 1.0% GC-100, 5 hrs after irradiation) was 1.33 ± 0.50 and the “% printed … (reduction vs control)” value ([1]; 1.0% GC-100, 24 hrs) was 83.5%. The “Erythema score (mean ± SD)” value ([1]; 1.0% GC-100, 24 hrs after irradiation) was 0.33 ± 0.50, the “average increase in O2 consumption” value [2] was 282%±30 and the “% increase O2 consumption” value ([2]; 57 mg cells) was 310%. The “Final consumption, ha” value ([2]; 57 mg cells) was 1.259 nm O2/min/mg cells, the “% increase O2 consumption” value ([2]; 58 mg cells) was 260% and the “Final consumption, ha” value ([2]; 58 mg cells) was 1.003 nm O2/min/mg cells. The “% increase O2 consumption” value ([2]; 60 mg cells) was 240%, the “Final consumption, ha” value ([2]; 60 mg cells) was 0.865 nm O2/min/mg cells and the “% increase O2 consumption” value ([2]; 63 mg cells) was 280%. For the same substance, the “Final consumption, ha” value ([2]; 63 mg cells) was 0.879 nm O2/min/mg cells, the “% increase O2 consumption” value ([2]; 64 mg cells) was 320% and the “Final consumption, ha” value ([2]; 64 mg cells) was 0.954 nm O2/min/mg cells. For the same substance, the “% lysyl oxidase” value ([3]; Group II pretreatment, 0.5% GC-100, Day 4) was 1.4%, the “% lysyl oxidase” value ([3]; Group II pretreatment, 0.5% GC-100, Week 2) was 10.2% and the “% lysyl oxidase” value ([3]; Group II pretreatment, 0.5% GC-100, Week 3) was 13.4%. The “% lysyl oxidase” value ([3]; Group II pretreatment, 0.5% GC-100, Week 4) was 45.9%, the “% lysyl oxidase” value ([3]; Group II pretreatment, 1% GC-100, Day 4) was 5.2% and the “% lysyl oxidase” value ([3]; Group II pretreatment, 1% GC-100, Week 2) was 18.2%. The “% lysyl oxidase” value ([3]; Group II pretreatment, 1% GC-100, Week 3) was 23.4%, the “% lysyl oxidase” value ([3]; Group II pretreatment, 1% GC-100, Week 4) was 45.9% and the “% lysyl oxidase” value ([3]; Group III post-treatment, 0.5% GC-100, Day 4) was 1.2%. For the same substance, the “% lysyl oxidase” value ([3]; Group III post-treatment, 0.5% GC-100, Week 2) was 3.2%, the “% lysyl oxidase” value ([3]; Group III post-treatment, 0.5% GC-100, Week 3) was 19.8% and the “% lysyl oxidase” value ([3]; Group III post-treatment, 0.5% GC-100, Week 4) was 48.7%. For the same substance, the “% lysyl oxidase” value ([3]; Group III post-treatment, 1% GC-100, Day 4) was 5.3%, the “% lysyl oxidase” value ([3]; Group III post-treatment, 1% GC-100, Week 2) was 11.5% and the “% lysyl oxidase” value ([3]; Group III post-treatment, 1% GC-100, Week 3) was 19.7%. For the same substance, the “% lysyl oxidase” value ([3]; Group III post-treatment, 1% GC-100, Week 4) was 49.6%, the “% lysyl oxidase” value ([3]; Group IV pre- & post-treatment, 0.5% GC-100, Day 4) was 21% and the “% lysyl oxidase” value ([3]; Group IV pre- & post-treatment, 0.5% GC-100, Week 2) was 30.1%. The “% lysyl oxidase” value ([3]; Group IV pre- & post-treatment, 0.5% GC-100, Week 3) was 42.4%, the “% lysyl oxidase” value ([3]; Group IV pre- & post-treatment, 0.5% GC-100, Week 4) was 52.8% and the “% lysyl oxidase” value ([3]; Group IV pre- & post-treatment, 1% GC-100, Day 4) was 47.2%. The “% lysyl oxidase” value ([3]; Group IV pre- & post-treatment, 1% GC-100, Week 2) was 50.5%, the “% lysyl oxidase” value ([3]; Group IV pre- & post-treatment, 1% GC-100, Week 3) was 58.8% and the “% lysyl oxidase” value ([3]; Group IV pre- & post-treatment, 1% GC-100, Week 4) was 62.7%. The “Mean % (change in epidermal thickness)” value [4, 6] was 8.5%, the “% change (epidermal thickness, ultrasound)” value [4, 6] was 3.4-19.2% and the “Mean % (change in epidermal thickness)” value [4, 7] was 7.95%. The “% change (epidermal thickness, ultrasound)” value [4, 7] was 2.9-14%, the “stratum corneum compaction spongiosis, granular cell layer thickness and epidermal thickness vs baseline” value ([4]; both treatment groups, high frequency ultrasound) was “significant increase over baseline” and the “average increase in epidermal thickness” value ([4]; six weeks after application) was 8%. For the same substance, the “acceleration of generalized healing” value ([5]; free flap full-thickness skin graft model, skin overlying a muscle belly) was 50% and the “physical examination of treated flap skin” value ([5]; superior half of flap treated three times over 9 days from postoperative day 14) was “noticeably thicker, smoother and less erythematous”.
